From PubChem BioAssay AID330 (DTP/NCI, 2004)
“And” between values parts separate entries of the source, which are not always exact repeats. Equal values may be shown once. Toxic doses and inconclusive results are not listed.

Tested on: P388 leukemia ip, CD2F1 mice, survival T/C
Experiment: NCI In Vivo Anticancer Drug Screen. Data for tumor model P388 Leukemia (intraperitoneal) in CD2F1 (CDF1) mice
Conditions: endpoint: median survival time, higher = longer survival
How it was run: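 Mice carrying the transplanted tumor received test compound or vehicle. Survival was recorded in each group, and the value is the treated-group measurement divided by that of the vehicle-treated control group.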

[1] = dose: 15.0 mg/kg/injection, schedule: Q01DX005 (ip), vehicle: saline with Tween-80
[2] = dose: 30.0 mg/kg/injection, schedule: Q01DX005 (ip), vehicle: saline with Tween-80
[3] = dose: 60.0 mg/kg/injection, schedule: Q01DX005 (ip), vehicle: saline with Tween-80
[4] = dose: 60.0 mg/kg/injection, schedule: Q01DX005 (ip), vehicle: saline
[5] = dose: 120.0 mg/kg/injection, schedule: Q01DX005 (ip), vehicle: saline
[6] = dose: 240.0 mg/kg/injection, schedule: Q01DX005 (ip), vehicle: saline
[7] = dose: 50.0 mg/kg/injection, schedule: Q01DX009 (ip), vehicle: saline with Tween-80
[8] = dose: 100.0 mg/kg/injection, schedule: Q01DX009 (ip), vehicle: saline with Tween-80
[9] = dose: 200.0 mg/kg/injection, schedule: Q01DX009 (ip), vehicle: saline with Tween-80
[10] = dose: 50.0 mg/kg/injection, schedule: Q01DX005 (ip), vehicle: saline with Tween-80
[11] = dose: 100.0 mg/kg/injection, schedule: Q01DX005 (ip), vehicle: saline with Tween-80
[12] = dose: 200.0 mg/kg/injection, schedule: Q01DX005 (ip), vehicle: saline with Tween-80
[13] = dose: 50.0 mg/kg/injection, schedule: Q01DX009 (ip), vehicle: saline
[14] = dose: 240.0 mg/kg/injection, schedule: Q01DX005 (ip), vehicle: saline with Tween-80
[15] = dose: 25.0 mg/kg/injection, schedule: Q01DX009 (ip), vehicle: saline with Tween-80
[16] = dose: 60.0 mg/kg/injection, schedule: Q01DX005 (ip), vehicle: Klucel (hydroxypropylcellulose) (HPC)
[17] = dose: 120.0 mg/kg/injection, schedule: Q01DX005 (ip), vehicle: Klucel (hydroxypropylcellulose) (HPC)
[18] = dose: 50.0 mg/kg/injection, schedule: Q01DX009 (ip), vehicle: Klucel (hydroxypropylcellulose) (HPC)
[19] = dose: 100.0 mg/kg/injection, schedule: Q01DX009 (ip), vehicle: Klucel (hydroxypropylcellulose) (HPC)
[20] = dose: 200.0 mg/kg/injection, schedule: Q01DX009 (ip), vehicle: Klucel (hydroxypropylcellulose) (HPC)
[21] = dose: 120.0 mg/kg/injection, schedule: Q01DX005 (ip), vehicle: saline with Tween-80
[22] = dose: 12.5 mg/kg/injection, schedule: Q01DX009 (ip), vehicle: saline
[23] = dose: 25.0 mg/kg/injection, schedule: Q01DX009 (ip), vehicle: saline

## COc1ccc(/C(O)=C/c2nc3cccc([N+](=O)[O-])c3[nH]c2=O)cc1
[1]
  T/C: 91 % of control
[2]
  T/C: 91 % of control
[3]
  T/C: 86 % of control

## COC(=O)C1(C2CCCCCCCCCCC2=O)NC(=S)NC(=O)C1C#N (stereo unspecified)
[4]
  T/C: 96 % of control
[5]
  T/C: 92 % of control
[6]
  T/C: 92 % of control

## C=CCC1(CCC)C(=O)NC(=S)NC1=O
[7]
  T/C: 110 % of control
[8]
  T/C: 117 % of control
[9]
  T/C: 115 % of control

## O=C(NCc1ccccc1)c1ccccc1NS(=O)(=O)c1ccc(Cl)c(Cl)c1
[10]
  T/C: 96 % of control
[11]
  T/C: 87 % of control
[12]
  T/C: 93 % of control

## OC(/C=C/CC(O)(C(F)(F)F)C(F)(F)F)(C(F)(F)F)C(F)(F)F
[13]
  T/C: 100 % of control
dose: 100.0 mg/kg/injection, schedule: Q01DX009 (ip), vehicle: saline
  T/C: 98 % of control

## CC1=CC(=O)OC12CCCC(C)(C)C2 (stereo unspecified)
[10]
  T/C: 106 % of control
[11]
  T/C: 104 % of control
[12]
  T/C: 106 % of control

## C/C(=C\Cc1cc(O)c(C)cc1O)CC/C=C(\C)Cc1cc(C)co1
dose: 4.0 mg/kg/injection, schedule: Q01DX009 (ip), vehicle: Klucel (hydroxypropylcellulose) (HPC)
  T/C: 93 % of control
dose: 8.0 mg/kg/injection, schedule: Q01DX009 (ip), vehicle: Klucel (hydroxypropylcellulose) (HPC)
  T/C: 101 % of control
dose: 16.0 mg/kg/injection, schedule: Q01DX009 (ip), vehicle: Klucel (hydroxypropylcellulose) (HPC)
  T/C: 101 % of control
dose: 32.0 mg/kg/injection, schedule: Q01DX009 (ip), vehicle: Klucel (hydroxypropylcellulose) (HPC)
  T/C: 108 % of control

## CC(/C=C/c1ccccc1)=N\NC(=S)Nc1ccc(Cl)cc1
dose: 100.0 mg/kg/injection, schedule: Q04DX002 (ip), vehicle: Klucel (hydroxypropylcellulose) (HPC)
  T/C: 108 % of control
dose: 200.0 mg/kg/injection, schedule: Q04DX002 (ip), vehicle: Klucel (hydroxypropylcellulose) (HPC)
  T/C: 107 % of control
dose: 400.0 mg/kg/injection, schedule: Q04DX002 (ip), vehicle: Klucel (hydroxypropylcellulose) (HPC)
  T/C: 108 % of control

## O=C(Nc1cccc(Br)c1)Oc1ccc(Cl)c2cccnc12
dose: 7.5 mg/kg/injection, schedule: Q01DX005 (ip), vehicle: saline with Tween-80
  T/C: 107 % of control
[1]
  T/C: 103 % of control
[2]
  T/C: 103 % of control and 91 % of control
[3]
  T/C: 100 % of control and 111 % of control
[14]
  T/C: 88 % of control

## O=C1C=CC2C3C(=O)N(c4ccccc4)C(=O)C3C1N2Cc1ccccc1 (stereo unspecified)
[10]
  T/C: 105 % of control and 110 % of control and 118 % of control
[11]
  T/C: 116 % of control and 117 % of control and 118 % of control
[12]
  T/C: 119 % of control and 120 % of control and 123 % of control
dose: 400.0 mg/kg/injection, schedule: Q01DX005 (ip), vehicle: saline with Tween-80
  T/C: 113 % of control and 114 % of control

## Nc1nc(=S)c2ncn(C3OC(COC(=O)c4ccccc4)C(OC(=O)c4ccccc4)C3OC(=O)c3ccccc3)c2[nH]1 (stereo unspecified)
dose: 4.4 mg/kg/injection, schedule: Q01DX009 (ip), vehicle: saline with Tween-80
  T/C: 109 % of control
dose: 6.6 mg/kg/injection, schedule: Q01DX009 (ip), vehicle: saline with Tween-80
  T/C: 113 % of control
dose: 10.0 mg/kg/injection, schedule: Q01DX009 (ip), vehicle: saline with Tween-80
  T/C: 122 % of control
dose: 44.0 mg/kg/injection, schedule: Q04DX003 (ip), vehicle: saline with Tween-80
  T/C: 108 % of control
[7]
  T/C: 170 % of control
dose: 66.0 mg/kg/injection, schedule: Q04DX003 (ip), vehicle: saline with Tween-80
  T/C: 116 % of control
[8]
  T/C: 90 % of control

## Clc1nnc(Cl)s1
[15]
  T/C: 96 % of control
[7]
  T/C: 95 % of control
[8]
  T/C: 101 % of control

## NNS(=O)(=O)c1ccccc1
[7]
  T/C: 103 % of control
[8]
  T/C: 103 % of control

## Cc1cc(Cc2ccc3c(c2)OCO3)ccc1OCC(=O)O
dose: 50.0 mg/kg/injection, schedule: Q01DX005 (ip), vehicle: Klucel (hydroxypropylcellulose) (HPC)
  T/C: 98 % of control
dose: 100.0 mg/kg/injection, schedule: Q01DX005 (ip), vehicle: Klucel (hydroxypropylcellulose) (HPC)
  T/C: 105 % of control
dose: 200.0 mg/kg/injection, schedule: Q01DX005 (ip), vehicle: Klucel (hydroxypropylcellulose) (HPC)
  T/C: 104 % of control

## CC(NNC(=S)NCc1ccccc1)c1cc2ccccc2cn1 (stereo unspecified)
[10]
  T/C: 106 % of control and 113 % of control
[11]
  T/C: 119 % of control
[12]
  T/C: 160 % of control

## NC(CCS(=O)(=O)NCCCl)C(=O)O (stereo unspecified)
dose: 12.5 mg/kg/injection, schedule: Q01DX009 (ip), vehicle: water
  T/C: 103 % of control
dose: 25.0 mg/kg/injection, schedule: Q01DX009 (ip), vehicle: water
  T/C: 105 % of control
dose: 50.0 mg/kg/injection, schedule: Q01DX009 (ip), vehicle: water
  T/C: 104 % of control
dose: 100.0 mg/kg/injection, schedule: Q01DX009 (ip), vehicle: water
  T/C: 102 % of control
dose: 200.0 mg/kg/injection, schedule: Q01DX009 (ip), vehicle: water
  T/C: 105 % of control

## OCC1OC(N(O)c2ccc(Oc3c(Cl)cc(Cl)cc3Cl)cc2)C(O)C(O)C1O (stereo unspecified)
[16]
  T/C: 100 % of control
[17]
  T/C: 100 % of control

## Cc1ccc(S(=O)(=O)N/N=C\C(O)C(O)C(O)CO)cc1 (stereo unspecified)
[18]
  T/C: 114 % of control
[19]
  T/C: 106 % of control
[20]
  T/C: 107 % of control
dose: 400.0 mg/kg/injection, schedule: Q01DX009 (ip), vehicle: Klucel (hydroxypropylcellulose) (HPC)
  T/C: 104 % of control

## C1=Cc2cc(CN3CCOCC3)ccc2Nc2ccccc21
[16]
  T/C: 99 % of control
[17]
  T/C: 89 % of control

## Oc1ccc(O)c(-n2nc3ccccc3n2)c1
[3]
  T/C: 104 % of control
[21]
  T/C: 103 % of control
[14]
  T/C: 100 % of control

## N#CC1CCCC2OCC(c3ccccc3)N12 (stereo unspecified)
[16]
  T/C: 119 % of control
[17]
  T/C: 119 % of control
dose: 240.0 mg/kg/injection, schedule: Q01DX005 (ip), vehicle: Klucel (hydroxypropylcellulose) (HPC)
  T/C: 117 % of control

## c1cnc2ncncc2n1
[7]
  T/C: 104 % of control and 111 % of control
[8]
  T/C: 120 % of control
[9]
  T/C: 150 % of control

## CCN(CC)CCSC(=O)C(O)(c1ccccc1)c1ccccc1
dose: 2.5 mg/kg/injection, schedule: Q01DX009 (ip), vehicle: saline
  T/C: 108 % of control
dose: 5.0 mg/kg/injection, schedule: Q01DX009 (ip), vehicle: saline
  T/C: 117 % of control
dose: 10.0 mg/kg/injection, schedule: Q01DX009 (ip), vehicle: saline
  T/C: 101 % of control
[22]
  T/C: 100 % of control
dose: 20.0 mg/kg/injection, schedule: Q01DX009 (ip), vehicle: saline
  T/C: 90 % of control
[23]
  T/C: 98 % of control
dose: 40.0 mg/kg/injection, schedule: Q01DX009 (ip), vehicle: saline
  T/C: 101 % of control
[13]
  T/C: 101 % of control (2×) and 107 % of control

## N#CC1C(=O)NC(=O)C(C#N)C1c1ccc(Cl)cc1Cl (stereo unspecified)
[18]
  T/C: 96 % of control
[19]
  T/C: 105 % of control
[20]
  T/C: 107 % of control

## COc1ccc(C(CC(C)=O)c2cc3c(cc2OC(C)=O)OCO3)cc1 (stereo unspecified)
[3]
  T/C: 97 % of control
[21]
  T/C: 103 % of control
[14]
  T/C: 99 % of control

## S=c1nc(N(c2ccccc2)c2ccccc2)[nH]s1
dose: 12.5 mg/kg/injection, schedule: Q01DX009 (ip), vehicle: saline with Tween-80
  T/C: 104 % of control
[15]
  T/C: 101 % of control
[7]
  T/C: 93 % of control

## C=CCN1CSC(=S)N(CC=C)C1
[15]
  T/C: 98 % of control
[7]
  T/C: 119 % of control and 94 % of control

## CN1C(=O)C(CC(=O)O)NC1=S (stereo unspecified)
[4]
  T/C: 101 % of control
[5]
  T/C: 103 % of control
[6]
  T/C: 104 % of control

## COP(=O)(CC(=O)CCCCC1OCCO1)OC
[4]
  T/C: 110 % of control
[5]
  T/C: 105 % of control
[6]
  T/C: 100 % of control

## O=C1C(Cl)=C(NCCCN(CCO)CCO)C(=O)c2ccccc21
[22]
  T/C: 100 % of control
[23]
  T/C: 107 % of control and 88 % of control
[13]
  T/C: 107 % of control and 108 % of control
